Data on 22 molecules can be found in patent US20240279220A1, “INDOLE COMPOUNDS AND METHODS OF USE” (Genzyme Corporation, priority 2021, published 2024).

In this test the test system is NBD1/3D. The experiment in a line: Aggregation analysis using differential static light scattering (DSLS), NBD1 thermal stability. The note with it: ΔTagg versus DMSO control; compound at 100 μM. Format: binding, Human. As for the experimental part:
Purified recombinant NBD1 was produced using previously described methods (A. Schmidt, J. L. Mendoza, P. J. Thomas (2011) Biochemical and Biophysical Approaches to Probe CFTR Structure (365-376) M. D. Amaral, K. Kunzelmann (eds.), Cystic Fibrosis, Methods in Molecular Biology 741, Springer Science+Business Media). The effect of test compounds on thermal stability of NBD1 was evaluated by differential static light scattering (DSLS) using the Harbinger Stargazer-384 instrument (Epiphyte Three, Toronto, Canada).
Test compounds were dissolved and diluted to desired concentrations in 100% DMSO. The compounds or DMSO controls (100 nL) were stamped into wells of a […] low volume optical plate (Corning Inc., Corning, NY) using the Echo 555 acoustic liquid handler (Labcyte Inc., San Jose, CA).
NBD1 protein was diluted to 0.2 mg/ml in S200 buffer (50 mM Tris-HCl, 150 mM NaCl, 5 mM MgCl2, 2 mM ATP, 2 mM DTT, pH7.6) containing 1% glycerol. 10 uL of protein solution was aliquoted into the 384-well plate harboring the test compounds and 10 uL mineral oil was overlayed onto the protein solution, using the epMotion robotic liquid handler (Eppendorf North America, Hauppauge, NY). After placing into the Stargazer instrument, the plate was heated at 1° C. per minute to 70° C. Images were captured from 25° C. to 70° C. every 0.5° C. At the end of the experiment run, instrument software integrated image files and analyzed data automatically. A […] regression curve was generated for each well, representing the increase in light scattering over time. A temperature of aggregation (Tagg) was calculated based on the inflection point of the curve. To better compare data across experiments the average Tagg for DMSO control wells was calculated and subtracted from values for wells containing compounds to obtain a “ΔTagg” value. These ΔTagg values reflect stabilizing efficacy of the compounds.

For `CO[C@]1(C)C[C@@](c2cccc(CCC(=O)O)c2)(c2cnc(-c3cc(Oc4c(F)c(F)c5[nH]ccc5c4S(C)(=O)=O)ccc3F)[nH]2)C1` [Example 70, rac-3-(3-((1r,3r)-1-(2-(5-((6,7-Difluoro-4-(methylsulfonyl)-1H-indol-5-yl)oxy)-2-fluorophenyl)-1H-imidazol-5-yl)-3-methoxy-3-methylcyclobutyl)phenyl)propanoic acid], the “DSLS NBD1/3D Human Stability delta-T (° C.) @ 100 (μM)” value (“DSLS NBD1/3D Human Stability delta-T” below) is reported as “A (A: T ≥ 10° C.)”.

Take `O=P(O)(O)OCCCc1cccc(Cc2cnc(-c3cc(Oc4c(F)cc5[nH]ccc5c4F)ccc3F)[nH]2)c1F` [Example 269, 3-(3-((2-(5-((4,6-Difluoro-1H-indol-5-yl)oxy)-2-fluorophenyl)-1H-imidazol-5-yl)methyl)-2-fluorophenyl)propyl dihydrogen phosphate]: the “DSLS NBD1/3D Human Stability delta-T” value was “C (C: ≤5° C.)”.

Consider `CO[C@]1(C)C[C@](c2cc(F)cc(CCC(=O)O)c2)(c2cnc(-c3cc(Oc4c(F)cc5[nH]ccc5c4S(C)(=O)=O)ccc3F)[nH]2)C1` [Example 73, 3-(3-fluoro-5-((1s,3s)-1-(2-(2-fluoro-5-((6-fluoro-4-(methylsulfonyl)-1H-indol-5-yl)oxy)phenyl)-1H-imidazol-5-yl)-3-methoxy-3-methylcyclobutyl)-phenyl)propanoic acid], for which the “DSLS NBD1/3D Human Stability delta-T” value is on record as “A (A: T ≥ 10° C.)”.

Take `Cc1c(Oc2ccc(F)c(-c3nc(C4(c5cccc(CCC(=O)O)c5)OCCO4)c[nH]3)c2)c(F)cc2[nH]ccc12` [Example 232, 3-(3-(2-(2-(2-fluoro-5-((6-fluoro-4-methyl-1H-indol-5-yl)oxy)phenyl)-1H-imidazol-4-yl)-1,3-dioxolan-2-yl)phenyl)propanoic acid]: the “DSLS NBD1/3D Human Stability delta-T” value is recorded as “B (B: 5-10° C.)”.

Turning to `OCCCc1cccc(Cc2cnc(-c3cc(Oc4c(F)cc5[nH]ccc5c4F)ccc3F)[nH]2)c1F` [Example 268, 3-(3-((2-(5-((4,6-Difluoro-1H-indol-5-yl)oxy)-2-fluorophenyl)-1H-imidazol-5-yl)methyl)-2-fluorophenyl)propan-1-ol], the “DSLS NBD1/3D Human Stability delta-T” value is recorded as “C (C: ≤5° C.)”.

For `CC(O)(c1cccc(CCC(=O)O)c1)c1cnc(-c2cc(Oc3c(F)cc4[nH]ccc4c3P(C)(C)=O)ccc2F)[nH]1` (stereo not shown) [Example 96, 3-(3-(1-(2-(5-((4-(Dimethylphosphoryl)-6-fluoro-1H-indol-5-yl)oxy)-2-fluorophenyl)-1H-imidazol-5-yl)-1-hydroxyethyl)phenyl)propanoic acid], the “DSLS NBD1/3D Human Stability delta-T” value is “B (B: 5-10° C.)”.

Consider `CC(=O)CCc1cc(F)cc(C(C)(O)c2c[nH]c(-c3cc(Oc4c(F)cc5[nH]ccc5c4F)ccc3F)n2)c1` (stereo not shown) [Example 221, 4-(3-(1-(2-(5-((4,6-Difluoro-1H-indol-5-yl)oxy)-2-fluorophenyl)-1H-imidazol-4-yl)-1-hydroxyethyl)-5-fluorophenyl)butan-2-one], for which the “DSLS NBD1/3D Human Stability delta-T” value is recorded as “C (C: ≤5° C.)”.

With `Cc1c(Oc2ccc(F)c(-c3ncc(C(C)(O)c4cccc(CCC(=O)O)c4)[nH]3)c2)cc(F)c2[nH]ccc12` (stereo not shown) [Example 195, 3-(3-(1-(2-(2-fluoro-5-((7-fluoro-4-methyl-1H-indol-5-yl)oxy)phenyl)-1H-imidazol-5-yl)-1-hydroxyethyl)phenyl) propanoic acid], the “DSLS NBD1/3D Human Stability delta-T” value is given as “B (B: 5-10° C.)”.

As for `Cc1c(Oc2ccc(F)c(-c3ncc(C(C)(O)c4cccc(CCC(=O)O)c4)[nH]3)c2)c(F)cc2[nH]cc(Cl)c12` (stereo not shown) [Example 201, 3-(3-(1-(2-(5-((3-chloro-6-fluoro-4-methyl-1H-indol-5-yl)oxy)-2-fluorophenyl)-1H-imidazol-5-yl)-1-hydroxyethyl)phenyl) propanoic acid], the “DSLS NBD1/3D Human Stability delta-T” value was “B (B: 5-10° C.)”.

With `O=C(O)CCc1cccc(C2(c3cnc(-c4cc(Oc5c(F)cc6[nH]ccc6c5SC(F)(F)F)ccc4F)[nH]3)CCOCC2)c1` [Example 82, 3-(3-(4-(2-(2-Fluoro-5-((6-fluoro-4-((trifluoromethyl)thio)-1H-indol-5-yl)oxy)phenyl)-1H-imidazol-5-yl)tetrahydro-2H-pyran-4-yl)phenyl)propanoic acid], the “DSLS NBD1/3D Human Stability delta-T” value is listed as “B (B: 5-10° C.)”.

As to `O=C(O)CCc1ccc(F)c(Cc2cnc(-c3cc(Oc4c(F)cc5[nH]ccc5c4F)ccc3F)[nH]2)c1` [Example 103, 3-(3-((2-(5-((4,6-difluoro-1H-indol-5-yl)oxy)-2-fluorophenyl)-1H-imidazol-5-yl)methyl)-4-fluorophenyl)propanoic acid], the “DSLS NBD1/3D Human Stability delta-T” value is reported as “B (B: 5-10° C.)”.

For `O=C(O)CSc1cccc(Cc2nnc(-c3cccc(Oc4c(F)cc5[nH]ccc5c4F)c3)[nH]2)c1` [Example 261, 2-((3-((5-(3-((4,6-Difluoro-1H-indol-5-yl)oxy)phenyl)-4H-1,2,4-triazol-3-yl)methyl)phenyl)thio)acetic acid], the “DSLS NBD1/3D Human Stability delta-T” value was “C (C: ≤5° C.)”.

For `CNC(=O)c1c(Oc2cccc(-c3ccn(Cc4cccc(CCC(=O)O)c4)n3)c2)ccc2[nH]ccc12` [Example 16, 3-(3-((3-(3-((4-(Methylcarbamoyl)-1H-indol-5-yl)oxy)phenyl)-1H-pyrazol-1-yl)methyl)phenyl)propanoic acid], the “DSLS NBD1/3D Human Stability delta-T” value is “B (B: 5-10° C.)”.

Turning to `CC(c1ccn(-c2cccc(Oc3c(F)cc4[nH]ccc4c3S(C)(=O)=O)c2)n1)c1cccc(CCC(=O)O)c1F` (single isomer, unassigned) [Example 23A, 3-(2-fluoro-3-(1-(1-(3-((6-fluoro-4-(methylsulfonyl)-1H-indol-5-yl)oxy)phenyl)-1H-pyrazol-3-yl)ethyl)phenyl)propanoic acid], the “DSLS NBD1/3D Human Stability delta-T” value is recorded as “C (C: ≤5° C.)”.

Consider `CC(C)(c1c[nH]c(-c2cc(Oc3c(F)cc4[nH]ccc4c3Cl)ccc2F)n1)c1cccc(CCC(=O)O)c1F` [Example 164, 3-(3-(2-(2-(5-((4-chloro-6-fluoro-1H-indol-5-yl)oxy)-2-fluorophenyl)-1H-imidazol-4-yl)propan-2-yl)-2-fluorophenyl)propanoic acid], for which the “DSLS NBD1/3D Human Stability delta-T” value is given as “B (B: 5-10° C.)”.

Take `CC(CC#N)(c1cccc(CCC(=O)O)c1)c1cnc(-c2cc(Oc3c(F)cc4[nH]ccc4c3S(C)(=O)=O)ccc2F)[nH]1` (stereo not shown) [Example 76, 3-(3-(1-Cyano-2-(2-(2-fluoro-5-((6-fluoro-4-(methylsulfonyl)-1H-indol-5-yl)oxy)phenyl)-1H-imidazol-5-yl)propan-2-yl)phenyl)propanoic acid]: the “DSLS NBD1/3D Human Stability delta-T” value is reported as “A (A: T ≥ 10° C.)”.

Turning to `Cc1c(Oc2cccc(-c3ccn(C(C)c4cccc(CC(=O)O)c4)n3)c2)ccc2[nH]ccc12` (stereo not shown) [Example 4, 2-(3-(1-(3-(3-((4-methyl-1H-indol-5-yl)oxy)phenyl)-1H-pyrazol-1-yl)ethyl)phenyl)acetic acid], the “DSLS NBD1/3D Human Stability delta-T” value is on record as “B (B: 5-10° C.)”.

As to `Cc1c(Oc2ccc(F)c(-c3ncc(C(C)(C)c4cccc(CCC(=O)O)c4F)[nH]3)c2)ccc2[nH]ccc12` [Example 161, 3-(2-fluoro-3-(2-(2-(2-fluoro-5-((4-methyl-1H-indol-5-yl)oxy)phenyl)-1H-imidazol-5-yl)propan-2-yl)phenyl)propanoic acid], the “DSLS NBD1/3D Human Stability delta-T” value is reported as “B (B: 5-10° C.)”.

On to `Cc1c(Oc2ccc(F)c(-c3ncc(C(C)(C)c4cccc(CCC(=O)O)c4)[nH]3)c2)c(F)cc2[nH]ccc12` [Example 144, 3-(3-(2-(2-(2-fluoro-5-((6-fluoro-4-methyl-1H-indol-5-yl)oxy)phenyl)-1H-imidazol-5-yl)propan-2-yl)phenyl)propanoic acid], for which the “DSLS NBD1/3D Human Stability delta-T” value is listed as “B (B: 5-10° C.)”.

On to `Cc1c(Oc2ccc(F)c(-c3ccn(Cc4cccc(CCC(=O)O)c4)n3)c2)c(F)cc2[nH]ccc12` [Example 14, 3-(3-((3-(2-fluoro-5-((6-fluoro-4-methyl-1H-indol-5-yl)oxy)phenyl)-1H-pyrazol-1-yl)methyl)phenyl)propanoic acid], for which the “DSLS NBD1/3D Human Stability delta-T” value is reported as “B (B: 5-10° C.)”.

Turning to `Cc1c(Oc2ccc(F)c(-c3nnc(C(C)(O)c4cccc(CCC(=O)O)c4)[nH]3)c2)c(F)cc2[nH]ccc12` (stereo not shown) [Example 251, 3-(3-(1-(5-(2-fluoro-5-((6-fluoro-4-methyl-1H-indol-5-yl)oxy)phenyl)-4H-1,2,4-triazol-3-yl)-1-hydroxyethyl)phenyl)propanoic acid], the “DSLS NBD1/3D Human Stability delta-T” value is “B (B: 5-10° C.)”.

`Cc1c(Oc2ccc(F)c(-c3ncc(Cc4cccc(CCC(=O)O)c4)[nH]3)c2)c(F)cc2[nH]ccc12` [Example 115, 3-(3-((2-(2-fluoro-5-((6-fluoro-4-methyl-1H-indol-5-yl)oxy)phenyl)-1H-imidazol-5-yl)methyl)phenyl)propanoic acid]: the “DSLS NBD1/3D Human Stability delta-T” value is listed as “B (B: 5-10° C.)”.
